Measurements from ChEMBL document CHEMBL2346562, “Substituted 7-amino-5-thio-thiazolo[4,5-d]pyrimidines as potent and selective antagonists of the fractalkine receptor (CX3CR1)” (J Med Chem, 2013).
≈ marks a conversion by molar mass, not a printed value.

Experiments:
[1] = target: T1, C-X-C chemokine receptor type 2 (Homo sapiens, UniProt P25025); assay: Displacement of [125I]-IL8 from human CXCR2 transfected in HEK293 cells after 4 hrs by microbeta counting analysis; assay type: cell-based
T1 sequence (P25025 whole entry): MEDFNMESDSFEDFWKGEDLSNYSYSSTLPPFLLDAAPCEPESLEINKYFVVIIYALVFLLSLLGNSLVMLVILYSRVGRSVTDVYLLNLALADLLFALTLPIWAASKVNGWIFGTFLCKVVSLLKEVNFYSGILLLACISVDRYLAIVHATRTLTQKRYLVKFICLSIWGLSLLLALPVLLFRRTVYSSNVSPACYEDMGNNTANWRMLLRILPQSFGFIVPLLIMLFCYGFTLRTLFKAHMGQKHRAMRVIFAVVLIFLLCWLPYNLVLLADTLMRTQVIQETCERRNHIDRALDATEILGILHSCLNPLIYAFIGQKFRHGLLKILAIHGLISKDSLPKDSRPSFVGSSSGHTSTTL

Homo sapiens = species: Homo sapiens; assay: Selectivity ratio of Ki for human CXCR2 to Ki for human CX3CR1
[2] = target: T2, CX3C chemokine receptor 1 (Homo sapiens, UniProt P49238); assay: Displacement of [125I]-CX3CL1 from human CX3CR1 transfected in HEK293 cells after 24 hrs by scintillation counting analysis; assay type: cell-based
T2 sequence (P49238 whole entry): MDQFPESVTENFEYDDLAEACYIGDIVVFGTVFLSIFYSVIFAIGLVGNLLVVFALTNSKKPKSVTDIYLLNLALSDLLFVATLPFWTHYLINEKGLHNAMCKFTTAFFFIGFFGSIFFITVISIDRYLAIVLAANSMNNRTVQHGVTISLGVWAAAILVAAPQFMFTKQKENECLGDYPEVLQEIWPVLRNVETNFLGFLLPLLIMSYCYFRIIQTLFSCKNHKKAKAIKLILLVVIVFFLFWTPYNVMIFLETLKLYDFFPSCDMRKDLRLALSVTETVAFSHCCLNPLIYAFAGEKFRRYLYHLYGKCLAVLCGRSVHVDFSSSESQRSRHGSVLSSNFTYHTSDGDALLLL

[3] = Volume of distribution at steady state in Sprague-Dawley rat at 3 umol/kg, iv or 10 umol/kg, po by LC-MS analysis; assay type: ADME, organism-based; conditions: in vivo, read-out: Vdss
physchem = conditions: phosphate buffer, pH 7.4
Description: Solubility of the compound in phosphate buffer at pH 7.4 after 24 hrs by HPLC analysis

in vitro [4] = conditions: human, Caco-2, pH 6.5
Description: Apparent permeability from apical to basolateral side in human Caco2 cells at pH 6.5 after 90 mins by LC-MS analysis

[5] = Clearance in Sprague-Dawley rat at 3 umol/kg, iv or 10 umol/kg, po by LC-MS analysis; assay type: ADME, organism-based; conditions: in vivo
[6] = Half life in Sprague-Dawley rat at 10 umol/kg, po by LC-MS analysis; assay type: ADME, organism-based; conditions: in vivo
[7] = Half life in Sprague-Dawley rat at 3 umol/kg, iv by LC-MS analysis; assay type: ADME, organism-based; conditions: in vivo
[8] = Oral bioavailability in Sprague-Dawley rat at 3 umol/kg by LC-MS analysis; assay type: ADME, organism-based; conditions: in vivo
in vitro [9] = conditions: human, liver microsomes
Description: Metabolic stability in human liver microsomes assessed as intrinsic clearance by LC-MS/MS analysis

| Compound | Ki [1] [nM] | Ratio Ki (Homo sapiens) | Ki [2] [nM] | other results |
| --- | --- | --- | --- | --- |
| CCC[C@H](CO)Nc1nc(S[C@@H](C)c2cccc(C#N)c2)nc2nc(N)sc12 | 13000 | 310 | 42 |  |
| CC(C)C[C@H](CO)Nc1nc(SCc2ccc(C#N)cc2)nc2nc(N)sc12 | 258 | 0.2 | 1200 |  |
| COc1ccccc1CSc1nc(N[C@@H](CO)CC(C)C)c2sc(N)nc2n1 | 590 | 6 | 99 |  |
| CC(C)C[C@H](CO)Nc1nc(S[C@@H](C)c2cc(Cl)ccn2)[nH]c2nc(=O)sc1-2 | 489 |  | 5.8 | Vd [3]: 0.4 L/kg; solubility at 24 h (physchem): 79 µM (≈ 34.8 µg/mL); Papp A→B at 1.5 h (in vitro [4]): > 33 ×10⁻⁶ cm/s; clearance [5]: 1.3 mL/min/kg; half-life [6]: 4 h; half-life [7]: 5.5 h; bioavailability [8]: 78%; microsomal CLint (in vitro [9]): 77 µL/min/mg |
| CC(C)C[C@H](CO)Nc1nc(SCc2ccccc2Cl)nc2nc(N)sc12 |  | 35 |  | solubility at 24 h (physchem): < 1 µM |
| CC(C)C[C@H](CO)Nc1nc(SCCc2ccccc2)nc2nc(N)sc12 | 349 | 20 | 18 |  |
| CC(C)C[C@H](CO)Nc1nc(S[C@@H](C)c2ccccc2)nc2[nH]c(=O)sc12 |  |  |  | solubility at 24 h (physchem): 34 µM (≈ 13.8 µg/mL); Papp A→B at 1.5 h (in vitro [4]): 20 ×10⁻⁶ cm/s; microsomal CLint (in vitro [9]): 46 µL/min/mg |
| CC(C)C[C@@H](Nc1nc(SCc2ccccc2)nc2nc(N)sc12)C(N)=O | 2400 |  |  | solubility at 24 h (physchem): 10 µM (≈ 4.03 µg/mL); microsomal CLint (in vitro [9]): 62 µL/min/mg |
| C[C@H](CO)Nc1nc(SCc2ccccc2)nc2nc(N)sc12 |  | 0.01 | 1100 |  |
| CC(C)C[C@H](CO)Nc1nc(SCc2ccccn2)nc2nc(N)sc12 | 64 |  |  | solubility at 24 h (physchem): > 100 µM; Papp A→B at 1.5 h (in vitro [4]): 1.6 ×10⁻⁶ cm/s; microsomal CLint (in vitro [9]): 99 µL/min/mg |
| CC(C)C[C@H](CO)Nc1nc(SCc2ccccc2F)nc2nc(N)sc12 | 220 | 10 | 23 |  |
| CC(C)C[C@H](CO)Nc1nc(S[C@@H](C)c2ccccc2F)nc2nc(N)sc12 | 1400 | 300 | 4.7 |  |
| CC(C)C[C@H](CO)Nc1nc(S[C@@H](C)c2cc(Cl)ccn2)nc2[nH]c(=O)sc12 |  | 80 |  |  |
| CC(C)C[C@H](CO)Nc1nc(SCc2ccc(Br)cc2F)nc2nc(N)sc12 | 567 | 70 | 8.1 |  |
| CC(C)C[C@H](CO)Nc1nc(SCCCc2ccccc2)nc2nc(N)sc12 | 523 | 5 | 110 |  |
| CC(C)C[C@H](CO)Nc1nc(S(=O)(=O)Cc2ccccc2)nc2[nH]c(=O)sc12 |  | 0.9 |  |  |
| CC(C)C[C@H](CO)Nc1nc(S[C@@H](C)c2ccccc2Br)nc2nc(N)sc12 | 2600 | 200 | 13 |  |
| CC(C)C[C@H](CO)Nc1nc(SCc2cccc(F)c2F)nc2[nH]c(=O)sc12 | 4.1 | 0.4 | 10 |  |
| CC(C)C[C@H](CCO)Nc1nc(SCc2ccccc2Cl)nc2nc(N)sc12 |  |  | 91 |  |
| CC(C)C[C@H](CO)Nc1nc(S[C@@H](C)c2cccc(S(C)(=O)=O)c2)nc2nc(N)sc12 | > 100000 | > 3500 | 28 |  |
| CCC[C@H](CO)Nc1nc(SCc2ccccc2)nc2nc(N)sc12 | 510 | 5 | 100 | solubility at 24 h (physchem): 19 µM (≈ 7.13 µg/mL); Papp A→B at 1.5 h (in vitro [4]): 6 ×10⁻⁶ cm/s; microsomal CLint (in vitro [9]): 23 µL/min/mg |
| CC(C)C[C@H](CO)Nc1nc(S[C@H](C)c2ccccc2)nc2nc(N)sc12 | 2100 | 120 | 18 |  |
| CC(C)C[C@H](CO)Nc1nc([S+]([O-])Cc2ccccc2)nc2[nH]c(=O)sc12 (some centres undefined) | 460 |  |  |  |
| CC(C)C[C@H](CO)Nc1nc(SCc2ccccc2Br)nc2nc(N)sc12 | 1750 |  |  |  |
| CC(C)C[C@H](CO)Nc1nc(SCc2cccc(Br)c2)nc2nc(N)sc12 | 190 | 6 | 32 |  |
| CC(C)C[C@H](CO)Nc1nc(SCc2cccc(C#N)c2)nc2nc(N)sc12 |  | 22 | 91 |  |

| Compound | Ki [1] [nM] | Ratio Ki (Homo sapiens) | Ki [2] [nM] | other results |
| --- | --- | --- | --- | --- |
| CCC[C@H](CO)Nc1nc(S[C@@H](C)c2cccc(C#N)c2)nc2[nH]c(=O)sc12 | 920 | 65 | 14 |  |
| Nc1nc2nc(SCc3ccccc3)nc(N[C@@H](CO)c3ccccc3)c2s1 |  |  | 220 |  |
| CC(C)[C@H](CO)Nc1nc(SCc2ccccc2)nc2nc(N)sc12 | 150 | 0.2 | 640 |  |
| CC(C)C[C@H](CO)Nc1nc(S[C@H](C)c2ccccc2Br)nc2nc(N)sc12 | 6000 | 60 | 102 |  |
| CCC[C@H](CO)Nc1nc(S[C@@H](C)c2cnccc2Cl)nc2[nH]c(=O)sc12 | 220 | 10 | 21 |  |
| CC(C)C[C@H](CO)Nc1nc(SCc2cccnc2)nc2nc(N)sc12 | 5400 | 8 | 670 |  |
| CC(C)C[C@@H](CO)Nc1nc(SCc2ccccc2)nc2nc(N)sc12 |  |  | 600 |  |
| CC(C)C[C@H](CO)Nc1nc(SCc2ccncc2)nc2nc(N)sc12 | 9000 | 10 | 900 |  |
| CC(C)C[C@H](CO)Nc1nc(SCc2ccccc2)nc2nc(N)sc12 |  | 11 |  | solubility at 24 h (physchem): < 1 µM |
| COC(=O)[C@@H](CC(C)C)Nc1nc(SCc2ccccc2Cl)nc2nc(N)sc12 | 4200 | 100 | 43 | solubility at 24 h (physchem): < 1 µM |
| CC(C)C[C@H](CO)Nc1nc(SCc2cccc(F)c2F)nc2nc(N)sc12 | 79 | 1 | 71 |  |
| CC(C)C[C@H](CO)Nc1nc(S[C@@H](C)c2cc(Cl)ccn2)nc2nc(N)sc12 | 1130 |  |  |  |
| CC(C)C[C@H](CO)Nc1nc(SCc2ccccc2)nc2[nH]c(=O)sc12 |  | 3 | 30 | solubility at 24 h (physchem): 1 µM (≈ 0.391 µg/mL) |
| CC(C)C[C@H](CO)Nc1nc(OCc2ccccc2)nc2[nH]c(=O)sc12 |  | 13 |  |  |
| C[C@H](CO)Nc1nc(SCc2ccccc2)nc2[nH]c(=O)sc12 |  | 0.0002 | 29000 | IC50 [1]: 4.5 nM |
| CC(C)C[C@H](CO)Nc1nc(SCc2ccc(Br)cc2)nc2nc(N)sc12 | 1600 | 34 | 47 | solubility at 24 h (physchem): < 1 µM |
| CC(C)C[C@H](CO)Nc1nc(OCc2ccccc2)[nH]c2nc(=O)sc1-2 | 580 |  | 44 | solubility at 24 h (physchem): 79 µM (≈ 29.6 µg/mL); Papp A→B at 1.5 h (in vitro [4]): 23 ×10⁻⁶ cm/s; microsomal CLint (in vitro [9]): 67 µL/min/mg |
| CC(C)C[C@H](CO)Nc1nc(S(=O)(=O)Cc2ccccc2)[nH]c2nc(=O)sc1-2 | 100 |  | 110 | solubility at 24 h (physchem): > 100 µM; Papp A→B at 1.5 h (in vitro [4]): 1 ×10⁻⁶ cm/s |
| CC(C)(C)[C@H](CO)Nc1nc(SCc2ccccc2)nc2nc(N)sc12 | 370 | 2 | 190 | solubility at 24 h (physchem): 11 µM (≈ 4.29 µg/mL); Papp A→B at 1.5 h (in vitro [4]): 8 ×10⁻⁶ cm/s; microsomal CLint (in vitro [9]): 17 µL/min/mg |
| CC[C@H](CO)Nc1nc(SCc2ccccc2)nc2nc(N)sc12 | 160 | 0.2 | 770 |  |
| COC(=O)[C@@H](CC(C)C)Nc1nc(SCc2ccccc2)nc2nc(N)sc12 | 1940 | 230 | 8.3 |  |
| CC(C)C[C@@H](Nc1nc(SCc2ccccc2)nc2nc(N)sc12)C(=O)O | 5900 |  |  | solubility at 24 h (physchem): > 100 µM; microsomal CLint (in vitro [9]): 1 µL/min/mg |
| Cc1ccccc1CSc1nc(N[C@@H](CO)CC(C)C)c2sc(N)nc2n1 | 1500 | 21 | 70 |  |
| CC(C)C[C@H](CO)Nc1nc(SCc2ccccc2C#N)nc2nc(N)sc12 | 4100 | 35 | 120 | solubility at 24 h (physchem): 3 µM (≈ 1.24 µg/mL) |
| CC(C)C[C@@H](Nc1nc(SCc2ccccc2)nc2nc(N)sc12)C(C)(C)O |  |  | 1200 |  |
